For data set [1], the system named is C57BL/6J mice. Briefly: Head twitch response (HTR). It is filed as in vivo, mouse. As to conditions: 30 minutes after injection. As for the experimental part: Male C57BL/6J mice at 6-8 weeks of age were purchased from Jackson Laboratories and housed four per cage in a climate and humidity-controlled room in a vivarium at the University of California, San Diego. The room operated on a reverse light cycle (lights on at 1900 h, off at 0700 h) with food and water available ad libitum, except during testing. All testing was performed during 1000 h and 1800 h. After a minimum of 1 week acclimation to the housing facility, mice were anesthetized using a mixture of ketamine (100 mg/kg IP) and xylazine (10 mg/kg IP). Under deep anesthesia, an incision was made in the scalp and a small neodymium magnet (4.57 mm×4.57 mm×2.03 mm) was attached to the cranium using cyanoacrylate and dental cement. After at least a 2-week recovery period, the mouse was removed from the home cage and injected intraperitoneally with the test article or vehicle (0.9% sterile saline). Immediately, the mouse was placed in a glass cylinder surrounded by a magnetometer coil and the head twitch response (HTR) was assessed for 30 minutes (Halberstadt and Geyer, 2013). The output of the coil was recorded using a Powerlab/8SP with LabChart v.7.3.2 (ADInstruments). Coil voltage was amplified, low-pass filtered (2-10 kHz cut-off frequency) to remove interference, digitized and sampled at 20 kHz. Head twitches were identified using a validated technique based on artificial intelligence (Halberstadt, 2020). Events in the recordings were transformed into a visual representation in the time-frequency domain and deep features were extracted using the pretrained convolutional neural network ResNet-50, and the images were subsequently classified using a Support Vector Machine algorithm.
Test articles (R,S-MDA, R(−)-MDA, S-(+)MDA), R,S-MDMA, R(−)-MDMA and S(+)-MDMA) were supplied by the NIDA Drug Supply Program as neat powders. Racemic MDA and MDMA and their enantiomers were dissolved in saline and injected IP at a volume of 5 mL/kg. Each dose was calculated based on the salt form of the compounds. For each treatment condition, six groups of mice (n=5-6/group) were treated with vehicle or the test drug (0.1, 0.3, 1, 3, or 10 mg/kg) and HTR assessed for 30 minutes immediately following injections. To avoid carryover effects, each treatment condition was performed at least seven days apart. Total number of mice used for the experiment was 63.

The nature of data set [2]: Rat plasma pharmacokinetics after cumulative (QID) SC injections. As to conditions: for dose dependence of Cmax and AUC0-27 hr: QID SC; for AUC0-27 hr / AUC0-27 hr/Dose / AUCTlast / Cmax / Cmax/Dose / Tlast / Tmax: male rat plasma.
Data set [3] concerns the target Serotonin 5-HT2B (Homo sapiens, UniProt P41595). Put plainly: Eurofins Panlabs radioligand binding panel, serotonin 5-HT2B. As to conditions: 10 uM.
Data set [4] deals with CD (Sprague Dawley) rats. Briefly: Rat functional observation battery (FOB) neurobehavioral evaluation after cumulative SC dosing. It is filed as in vivo. As for the experimental part: The observations were assessed through a rat functional observation battery (FOB) and continuous physiological measurements on the day of cumulative dosing, which are provided in further detail below.
Methods. A total of 42 adult male CD® (Sprague Dawley) rats (Charles River Laboratories) were surgically implanted with DSI radiotelemetry devices by personnel at Charles River Laboratories Raleigh, NC, per their test site SOPs. Telemetry devices supported continuous recording of temperature, activity, blood pressure and heart rate. Telemeterized rats were shipped to the Charles River Laboratories testing facility (Mattawan, MI) and acclimated to the environment for at least 1 week prior to experimentation. Animals were pair-housed in solid bottom cages with nonaromatic bedding. On the dosing day, animals were singly housed and then returned to the paired cohort following the dosing/telemetry recording phase. Diet (Lab Diet® Certified Rodent Diet #5CR4) and tap water via an automatic water system were available ad libitum, except during designated procedures. Temperature and humidity were maintained according to the Testing Facility SOP. Animals were randomized into treatment groups using a standard, by weight, measured value randomization procedure. Body weight was determined for each rat prior to dosing.
As illustrated in the Table, a total of 36 rats were included in the study. The vehicle and 2 test article doses were administered in a volume of 1 mL/kg to each of 3 groups of n=12 telemeterized rats via subcutaneous injection four times on a given day, followed by neurobehavioral evaluations. This series was repeated 3 times on study. Each group received all 3 dose levels of the applicable test or control article in ascending order with a 1-week washout between dose levels.
Mortality/cage side clinical observations were conducted for all study animals at least twice daily beginning upon receipt through termination, except on days of receipt and termination where frequency was at least once daily. Detailed clinical observations were conducted for all study animals prior to each of the four cumulative doses in a series. Individual body weights were conducted for all study animals at transfer, prior to randomization, on the day of dosing on each of the 3 cycles of dosing. The body weights recorded at transfer and prior to randomization are not reported but are maintained in the study file. Veterinary care was available throughout the course of the study, and animals were examined by the veterinary staff as needed based on clinical signs or other changes. All animals were provided with HydroGel the night prior to their respective dosing days to potentially mitigate any animal welfare issues related to fluid loss/dehydration.
Neurobehavioral evaluations (blinded) were conducted for all study animals 1 hour following the last (4th) cumulative dose of the series. The neurobehavioral parameters evaluated included: activity measurements (arousal/alertness, posture/body carriage, stereotypy, rearing, and appearance), autonomic measurements (exophthalmus, lacrimation, erected fur, pupil response, salivation, defecation, and palpebral closure/ptosis), excitability measurements (vocalizations, startle response, ease of removal, handling reactivity, and convulsions), neuromuscular measurements (gait/mobility, grip strength/response, air righting reflex, tremor, and body tone), physiological measurements (respiration and body temperature), and sensorimotor measurements (touch response/tactile reflex and thermal response).

Where [5] appears, read: metabolite S-MDA after QID SC S-MDMA, total 5 mg/kg/day.
[6] abbreviates: metabolite after QID SC parent, total 10 mg/kg/day.
The mark [7] stands for this setting: metabolite after QID SC parent, total 20 mg/kg/day.
The mark [8] stands for this setting: 1 h after last of 4 hourly SC injections, R-MDMA and racemic MDMA 10, 20 mg/kg/day, S-MDMA 5, 10 mg/kg/day.
[9] abbreviates: 1 h after last of 4 hourly SC injections, racemic MDMA 10, 20 mg/kg/day, S-MDMA 5, 10 mg/kg/day.
Where [10] appears, read: FOB, cumulative SC dosing, dose groups stated in the value, listed as Rac-MDMA.
The mark [11] stands for this setting: FOB, cumulative SC dosing, dose groups stated in the value, listed as Rac.-MDMA.

“Also recorded” adds a separate entry of the source.

Chain of Serotonin 5-HT2B (P41595 whole entry): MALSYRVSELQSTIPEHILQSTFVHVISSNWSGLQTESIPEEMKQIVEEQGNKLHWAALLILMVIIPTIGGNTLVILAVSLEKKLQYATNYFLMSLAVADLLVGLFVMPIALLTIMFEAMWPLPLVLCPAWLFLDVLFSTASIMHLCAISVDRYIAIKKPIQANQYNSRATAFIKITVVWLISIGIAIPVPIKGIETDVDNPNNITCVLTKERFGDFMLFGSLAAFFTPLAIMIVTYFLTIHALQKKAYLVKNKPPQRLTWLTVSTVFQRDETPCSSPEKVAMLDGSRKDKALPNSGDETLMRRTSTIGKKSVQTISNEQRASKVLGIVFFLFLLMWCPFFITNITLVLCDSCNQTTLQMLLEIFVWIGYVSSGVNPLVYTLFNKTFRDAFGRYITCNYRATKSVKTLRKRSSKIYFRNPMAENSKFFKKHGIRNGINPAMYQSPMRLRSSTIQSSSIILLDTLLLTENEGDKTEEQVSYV

Take `C[C@H](N)Cc1ccc2c(c1)OCO2` [S-MDA, S(+)-MDA]: the “head twitch response (HTR) compared to control (vehicle)” value in data set [1] (10 mg/kg IP) is reported as “reduction of HTR”. The “dose dependence of Cmax and AUC0-27 hr” value in data set [2] (from 5 to 10 mg/kg/day S-MDMA) is on record as “approximately dose proportional manner”. In addition, the “dose dependence of Cmax and AUC0-27 hr” value in data set [2] (from 5 to 20 mg/kg/day S-MDMA) is on record as “greater than dose proportional manner”. Also, in data set [2] (setting [5]), the AUC0-27 hr is 1280 ng·h/mL, the “AUC0-27 hr/Dose” value is 256 *kg*ng/mL/mg, the AUCTlast came out at 1270 ng·h/mL and the Cmax is on record as 342 ng/mL. Besides, in data set [2] (setting [5]), the Cmax/Dose amounted to 68.4 kg·ng/mL/mg, the Tlast was found to be 9 h and the time of peak concentration (Tmax) came to 4 h. In data set [2] (metabolite after QID SC parent (R-MDA after R-MDMA, S-MDA after S-MDMA, total MDA after Rac-MDMA), total 10 mg/kg/day), the Cmax was 957 ng/mL. Besides, the maximum concentration (Cmax) in data set [2] (metabolite after QID SC parent (R-MDA after R-MDMA, S-MDA after S-MDMA, total MDA after Rac-MDMA), total 20 mg/kg/day) was 2500 ng/mL. Also, in data set [2] (setting [6]), the AUC0-27 hr turned out to be 6770 ng·h/mL, the “AUC0-27 hr/Dose” value is 677 *kg*ng/mL/mg, the AUCTlast worked out at 5180 ng·h/mL and the Cmax/Dose was determined as 95.7 kg·ng/mL/mg. Moreover, in data set [2] (setting [6]), the Tlast worked out at 11 h and the Tmax is 5 h. In data set [2] (setting [7]), the AUC0-27 hr was 26300 ng·h/mL, the “AUC0-27 hr/Dose” value is listed as 1320 *kg*ng/mL/mg, the AUCTlast came to 26300 ng·h/mL and the Cmax/Dose was determined as 125 kg·ng/mL/mg. In data set [2] (setting [7]), the Tlast was determined as 27 h and the Tmax was 5 h. In data set [3], the “% inhibition of binding or activity” value is 82%.
`CNC(C)Cc1ccc2c(c1)OCO2` (racemic) [Racemic MDMA, 3,4-methylenedioxymethamphetamine]: in data set [4] (setting [8]), the arousal/alertness and rearing entry is “general increase in overall levels of arousal/alertness and rearing”; the “ease of removal from the home cage and handling reactivity (excitability)” value is “Dose-dependent increased difficulty in removal from the home cage and increased handling reactivity”; the forelimb grip strength entry is recorded as “dose-dependent statistically significant decreases in forelimb grip strength”; the “salivation and erected fur (autonomic)” value is “Dose-dependent increased salivation and erected fur”. Besides, the unkempt appearance entry in data set [4] (setting [8]) was “increased incidence of unkempt appearance in a dose-dependent manner”. Also, in data set [4] (setting [9]), the general gait/mobility changes result is reported as “General gait/mobility changes were only observed” and the respiration result was “Rapid respiration was noted”. Besides, in data set [4] (setting [10]), the “Rank Order Activity Measurement Effects” value was “Rac-MDMA (0 mg/kg/day) < Rac-MDMA (20 mg/kg/day) < Rac-MDMA (10 mg/kg/day); also recorded: S-MDMA (10 mg/kg/day) = R-MDMA (10 mg/kg/day) = Rac-MDMA (10 mg/kg/day)”, the “Rank Order Autonomic Measurement Effects” value is listed as “R-MDMA (20 mg/kg/day) < S-MDMA (10 mg/kg/day) < Rac-MDMA (20 mg/kg/day); also recorded: Rac-MDMA (0 mg/kg/day) < Rac-MDMA (10 mg/kg/day) < Rac-MDMA (20 mg/kg/day); also recorded: R-MDMA (10 mg/kg/day) < S-MDMA (10 mg/kg/day) = Rac-MDMA (20 mg/kg/day)”, the “Rank Order Excitability Measurement Effects” value was “S-MDMA (5 mg/kg/day) < Rac-MDMA (10 mg/kg/day); also recorded: R-MDMA (20 mg/kg/day) = S-MDMA (10 mg/kg/day) < Rac-MDMA (20 mg/kg/day); also recorded: Rac-MDMA (0 mg/kg/day) < Rac-MDMA (10 mg/kg/day) < Rac-MDMA (20 mg/kg/day); also recorded: R-MDMA (10 mg/kg/day) < S-MDMA (10 mg/kg/day) < Rac-MDMA (20 mg/kg/day)” and the “Rank Order Neuromuscular Measurement Effects” value is listed as “R-MDMA (20 mg/kg/day) = S-MDMA (10 mg/kg/day) < Rac-MDMA (20 mg/kg/day); also recorded: Rac-MDMA (0 mg/kg/day) < Rac-MDMA (10 mg/kg/day) < Rac-MDMA (20 mg/kg/day); also recorded: R-MDMA (10 mg/kg/day) < S-MDMA (10 mg/kg/day) < Rac-MDMA (20 mg/kg/day)”. For the same compound, in data set [4] (setting [10]), the “Rank Order Physiological Measurement Effects” value was “R-MDMA (20 mg/kg/day) < S-MDMA (10 mg/kg/day) = Rac-MDMA (20 mg/kg/day); also recorded: Rac-MDMA (0 mg/kg/day) < Rac-MDMA (10 mg/kg/day) < Rac-MDMA (20 mg/kg/day); also recorded: R-MDMA (10 mg/kg/day) < S-MDMA (10 mg/kg/day) = Rac-MDMA (20 mg/kg/day)” and the “Rank Order Sensorimotor Measurement Effects” value is “S-MDMA (5 mg/kg/day) < Rac-MDMA (10 mg/kg/day) < R-MDMA (10 mg/kg/day); also recorded: S-MDMA (10 mg/kg/day) < Rac-MDMA (20 mg/kg/day) < R-MDMA (20 mg/kg/day); also recorded: Rac-MDMA (0 mg/kg/day) < Rac-MDMA (10 mg/kg/day) < Rac-MDMA (20 mg/kg/day)”. Further, in data set [4] (setting [11]), the “Rank Order Activity Measurement Effects” value was “S-MDMA (5 mg/kg/day) < R-MDMA (10 mg/kg/day) < Rac.-MDMA (10 mg/kg/day); also recorded: Rac.-MDMA (20 mg/kg/day) < S-MDMA (10 mg/kg/day) < R-MDMA (20 mg/kg/day); also recorded: Rac.-MDMA (20 mg/kg/day) < S-MDMA (10 mg/kg/day) < R-MDMA (10 mg/kg/day)”, the “Rank Order Autonomic Measurement Effects” value was “R-MDMA (10 mg/kg/day) < S-MDMA (5 mg/kg/day) < Rac.-MDMA (10 mg/kg/day)”, the “Rank Order Excitability Measurement Effects” value is “R-MDMA (10 mg/kg/day) < S-MDMA (5 mg/kg/day) < Rac.-MDMA (10 mg/kg/day)” and the “Rank Order Neuromuscular Measurement Effects” value is “R-MDMA (10 mg/kg/day) < S-MDMA (5 mg/kg/day) < Rac.-MDMA (10 mg/kg/day)”. Further, the “Rank Order Physiological Measurement Effects” value in data set [4] (setting [11]) is given as “R-MDMA (10 mg/kg/day) < S-MDMA (5 mg/kg/day) < Rac.-MDMA (10 mg/kg/day)”. For the same compound, the thermal response times result in data set [4] (at levels at least two-fold that of vehicle-treated groups, 1 h after last of 4 hourly SC injections) is reported as “Statistically significant increases in thermal response times”. The neuromuscular observations result in data set [4] (primarily noted at 20 mg/kg/day racemic-MDMA (4 hourly SC injections)) was “observations of ataxia, hunched posture, and tip-toe walking”. Moreover, in data set [1] (3 mg/kg IP, listed as R,S-MDMA), the “head twitch response (HTR) compared to control (vehicle)” value is “decrease in HTR”. In addition, in data set [3], the “% inhibition of binding or activity” value is reported as 85%.

(Values after patent publication US20240082212A1, “USE OF MDMA FOR TREATMENT OF STRESS-RELATED DISORDERS” (priority 2022, published 2024).)
